Results reported in patent US20150056186A1, “COMBINATION THERAPY OF A TYPE II ANTI-CD20 ANTIBODY WITH AN ANTI-BCL-2 ACTIVE AGENT” (Hoffmann-La Roche Inc., priority 2007, published 2015).

Experiments:
[1] = tested on: Z138 human B-Cell Non-Hodgkin-lymphoma (NHL) cells; test: Tumor growth inhibition study in vivo, Z138 MCL xenografts in SCID beige mice; conditions: 10 mg/kg i.v. q7d
Excerpt: Z138 human B-Cell Non-Hodgkin-lymphoma (NHL) cells were originally obtained from Glycart (Mantle cell lymphoma-MCL). […] Passage 2 was used for transplantation.
Animal treatment started at day of randomisation, 14 days after s.c. cell transplantation.
Therefore s.c. xenografts models in SCID beige mice are not appropriate for mimicking human ADCC mediated effect with glycoengineered modified antibodies.

[2] = biological target: T1, CD20 on Raji cells (ATCC-No. CCL-86) (Homo sapiens, UniProt P11836); test: Ratio of the binding capacities to CD20 on Raji cells compared to rituximab (direct immunofluorescence, Cy5, FACSArray); conditions: Cy5-conjugated antibodies, MFI at EC50, corrected for Cy5-labeling ratio
T1 construct: generated by direct immunofluorescence using the Burkitt's lymphoma cell line Raji (ATCC-No. CCL-86); host or cells: Raji cells
T1 sequence (P11836 1-297): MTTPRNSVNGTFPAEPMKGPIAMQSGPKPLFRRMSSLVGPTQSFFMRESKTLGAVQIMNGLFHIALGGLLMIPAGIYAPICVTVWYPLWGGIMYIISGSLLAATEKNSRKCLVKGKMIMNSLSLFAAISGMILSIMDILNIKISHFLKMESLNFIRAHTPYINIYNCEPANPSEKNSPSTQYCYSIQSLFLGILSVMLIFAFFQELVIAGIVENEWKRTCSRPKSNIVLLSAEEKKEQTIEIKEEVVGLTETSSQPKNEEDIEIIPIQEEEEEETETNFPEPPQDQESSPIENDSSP
Protocol: MFI is the mean fluorescent intensity. The “Cy5-labeling ratio” as used herein means the number of Cy5-label molecules per molecule antibody.
Raji cells (ATCC-No. CCL-86) were maintained in culture in RPMI-1640 medium (PanBiotech GmbH, Cat.-No. PO4-18500) containing 10% FCS (Gibco, Cat.-No. 10500-064). […] 5*10^5 cells per sample were stained for 30 min at 4° C. Afterwards, cells were washed in culture medium. Propidium iodide (PI) staining was used to exclude dead cells.
Then the ratio of the binding capacities to CD20 on Raji cells (ATCC-No. CCL-86) is calculated according to the following formula: […]

Substance	Antitumor activity, later outcome [1]	Difference in antitumor activity between wt and glycoengineered versions [1]	Antitumor activity at time of control termination ([1]; 19 days after treatment initiation)	Ratio of the binding capacities to CD20 on Raji cells compared to rituximab [2]
B-HH6-B-KV1 wt: Type II anti-CD20 antibody, humanized B-Ly1 B-HH6-B-KV1 wildtype (non-glycoengineered)	most of Z138 tumor xenografts showed complete remission	No significant differences	all antibody tumors regressed	
B-HH6-B-KV1: Type II anti-CD20 antibody (humanized B-Ly1 antibody) of Example 2; FIG. 2 legend calls it B-HH6-B-KV1 GE				reduces binding capacity compared to rituximab
